Measurements reported in US20260022142A1, “MACROCYCLIC IMMUNOMODULATORS” (Bristol-Myers Squibb Company, priority 2022, published 2026).
Numbered stars: 1 amine (or outer) side, 2 acyl side, 3 side chain; on linkers, the order of the positions; unused ones are H or OH. Bridge positions count the residues as written; N and C are the ends. Square brackets hold non-standard residues; d marks the D form. Peptide text beside a SMILES is read from it. * marks the point of attachment. ξ: configuration not given here. X3 = CC(C)(F)C(=N)NCCC[C@H](N[*:1])C(=O)[*:2]; X7 = N=C(NCCC[C@H](N[*:1])C(=O)[*:2])C1CC1; Bip = N[C@@H](Cc1ccc(-c2ccccc2)cc1)C(=O)O; Phe(3-Me) = Cc1cccc(C[C@H](N)C(=O)O)c1; Cyclopropanecarbonyl = O=C(C1CC1)*; Lys(Me2) = CN(C)CCCC[C@H](N)C(=O)O; Pyrazinecarbonyl = O=C(c1cnccn1)*; hArg = N=C(N)NCCCC[C@H](N)C(=O)O; 4Pal = N[C@@H](Cc1ccncc1)C(=O)O; Cha = N[C@@H](CC1CCCCC1)C(=O)O; Cit = NC(=O)NCCC[C@H](N)C(=O)O; Thr(3ξ) = CC(O)[C@H](N)C(=O)O; 12Ado = NCCCCCCCCCCCC(=O)O; hSer = N[C@@H](CCO)C(=O)O; Carboxymethyl = O=C(O)C*; Orn = NCCC[C@H](N)C(=O)O; Aun = NCCCCCCCCCCC(=O)O; Dab = NCC[C@H](N)C(=O)O; Dap = NC[C@H](N)C(=O)O; X11 = CC(C)(F)C(=O)*

Molecular target: T1, PD-1/PD-L1 interaction (PE-labeled human PD-L1-Ig binding to Jurkat cell line over-expressing human PD-1) (Homo sapiens, UniProt Q15116)
T1 construct: expressed in transfected cells; host or cells: Jurkat
T1 sequence (Q15116 25-288): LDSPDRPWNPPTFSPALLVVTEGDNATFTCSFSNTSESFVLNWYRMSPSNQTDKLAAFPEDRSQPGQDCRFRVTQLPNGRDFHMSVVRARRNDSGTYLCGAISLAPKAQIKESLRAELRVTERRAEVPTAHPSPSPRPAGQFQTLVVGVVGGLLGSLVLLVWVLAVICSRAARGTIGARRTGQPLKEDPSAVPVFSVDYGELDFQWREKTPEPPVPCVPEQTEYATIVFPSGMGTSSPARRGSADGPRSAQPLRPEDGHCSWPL
Assay: Jurkat-PD-1 Cell Binding High-Content Screening Assay (CBA)
Type: cell-based
Details: Jurkat cell line over-expressing human PD-1; PE-labeled PD-L1-Ig 20 nM final; read-out: Jurkat hPD1-PDL1 IC50
Method in brief: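 Read-out is high-content imaging of cell-bound phycoerythrin-tagged PD-L1-Ig on fixed, Hoechst-counterstained Jurkat cells that over-express human PD-1. Compound exposure lasts 2 h at 37° C before the labeled ligand (20 nM final) is added for a further hour.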

SMILES	IC50 [nM]
CC(=O)NCCCC[C@@H]1NC(=O)CSC[C@@H](C(=O)N[C@@H](CCCN)C(=O)N[C@@H](CO)C(=O)NCCCCCCCCCCCC(=O)O)NC(=O)[C@H](CO)NC(=O)[C@H](C(C)C)NC(=O)[C@H](CC2CCCCC2)NC(=O)[C@H](CCCNC(=N)N)NC(=O)[C@@H](CC(C)C)NC(=O)[C@H](CCCN)NC(=O)[C@H](CCCNC(=N)N)NC(=O)[C@H](Cc2ccc(-c3ccccc3)cc2)NC(=O)[C@H](C(C)C)NC(=O)[C@H](Cc2cccc(C)c2)NC(=O)[C@H](CC(=O)O)NC(=O)[C@H](Cc2ccc(OCC(=O)O)cc2)NC1=O [Compound 3577] ({CH2CO}-K(Ac)Y(Carboxymethyl)D[Phe(3-Me)]V[Bip]R[Orn][dL]R[Cha]VSC[Orn]S[12Ado]-OH; thioether N-14)	31.1
Cc1cccc(C[C@@H]2NC(=O)[C@H](CC(=O)O)NC(=O)[C@H](Cc3ccc(OCC(=O)O)cc3)NC(=O)[C@H](CCCCNC(=N)N)NC(=O)CSC[C@@H](C(=O)N[C@@H](CCCN)C(=O)N[C@@H](CO)C(=O)NCCCCCCCCCCCC(=O)O)NC(=O)[C@H](CO)NC(=O)[C@H](C(C)C)NC(=O)[C@H](CC3CCCCC3)NC(=O)[C@H](CCN)NC(=O)[C@@H](CC(C)C)NC(=O)[C@H](CCCNC(=N)N)NC(=O)[C@H](CCCNC(=N)C3CC3)NC(=O)[C@H](Cc3ccc(-c4ccccc4)cc3)NC(=O)[C@H](C(C)C)NC2=O)c1 [Compound 3578] ({CH2CO}-[hArg]Y(Carboxymethyl)D[Phe(3-Me)]V[Bip][X7]R[dL][Dab][Cha]VSC[Orn]S[12Ado]-OH; thioether N-14)	21.5
Cc1cccc(C[C@@H]2NC(=O)[C@H](CC(=O)O)NC(=O)[C@H](Cc3ccc(OCC(=O)O)cc3)NC(=O)[C@H](CCCCNC(=N)N)NC(=O)CSC[C@@H](C(=O)N[C@@H](CCN)C(=O)NCCCCCCCCCCC(=O)O)NC(=O)[C@H](C(C)O)NC(=O)[C@H](C(C)C)NC(=O)[C@H](CC3CCCCC3)NC(=O)[C@H](CCN)NC(=O)[C@@H](CC(C)C)NC(=O)[C@H](CCCN)NC(=O)[C@H](CCCNC(=N)C(C)(C)F)NC(=O)[C@H](Cc3ccc(-c4ccccc4)cc3)NC(=O)[C@H](Cc3ccc(O)cc3)NC2=O)c1 (stereo partly drawn) [Compound 3579] ({CH2CO}-[hArg]Y(Carboxymethyl)D[Phe(3-Me)]Y[Bip][X3][Orn][dL][Dab][Cha]V[Thr(3ξ)]C[Dab][Aun]-OH; thioether N-14)	18.2
CC(=O)NCCCC[C@@H]1NC(=O)[C@H](Cc2ccc(-c3ccccc3)cc2)NC(=O)[C@H](C(C)C)NC(=O)[C@H](Cc2cccc(C)c2)NC(=O)[C@H](CC(=O)O)NC(=O)[C@H](Cc2ccc(OCC(=O)O)cc2)NC(=O)[C@H](CCCCNC(=N)N)NC(=O)CSC[C@@H](C(=O)N[C@@H](CCN)C(=O)NCCCCCCCCCCC(=O)O)NC(=O)[C@H](C(C)O)NC(=O)[C@H](C(C)C)NC(=O)[C@H](CC2CCCCC2)NC(=O)[C@H](CCN)NC(=O)[C@@H](CC(C)C)NC(=O)[C@H](CCCN)NC1=O (stereo partly drawn) [Compound 3580] ({CH2CO}-[hArg]Y(Carboxymethyl)D[Phe(3-Me)]V[Bip]K(Ac)[Orn][dL][Dab][Cha]V[Thr(3ξ)]C[Dab][Aun]-OH; thioether N-14)	16.8
Cc1cccc(C[C@@H]2NC(=O)[C@H](CC(=O)O)NC(=O)[C@H](Cc3ccc(OCC(=O)O)cc3)NC(=O)[C@H](CCCCNC(=N)N)NC(=O)CSC[C@@H](C(=O)N[C@@H](CCN)C(=O)NCCCCCCCCCCC(=O)O)NC(=O)[C@H](C(C)O)NC(=O)[C@H](C(C)C)NC(=O)[C@H](CC3CCCCC3)NC(=O)[C@H](CCN)NC(=O)[C@@H](CC(C)C)NC(=O)[C@H](CCCN)NC(=O)[C@H](CCCNC(=O)C3CC3)NC(=O)[C@H](Cc3ccc(-c4ccccc4)cc3)NC(=O)[C@H](Cc3ccc(O)cc3)NC2=O)c1 (stereo partly drawn) [Compound 3581] ({CH2CO}-[hArg]Y(Carboxymethyl)D[Phe(3-Me)]Y[Bip][Orn](Cyclopropanecarbonyl)[Orn][dL][Dab][Cha]V[Thr(3ξ)]C[Dab][Aun]-OH; thioether N-14)	16.2
Cc1cccc(C[C@@H]2NC(=O)[C@H](CC(=O)O)NC(=O)[C@H](Cc3ccc(OCC(=O)O)cc3)NC(=O)[C@H](CCCCN(C)C)NC(=O)CSC[C@@H](C(=O)N[C@@H](CCCN)C(=O)N[C@@H](CO)C(=O)NCCCCCCCCCCCC(=O)O)NC(=O)[C@H](C(C)O)NC(=O)[C@H](CCO)NC(=O)[C@H](CC3CCCCC3)NC(=O)[C@H](CCN)NC(=O)[C@@H](CC(C)C)NC(=O)[C@H](CCCN)NC(=O)[C@H](CCCNC(N)=O)NC(=O)[C@H](Cc3ccc(-c4ccccc4)cc3)NC(=O)[C@H](C(C)C)NC2=O)c1 (stereo partly drawn) [Compound 3582] ({CH2CO}-[Lys(Me2)]Y(Carboxymethyl)D[Phe(3-Me)]V[Bip][Cit][Orn][dL][Dab][Cha][hSer][Thr(3ξ)]C[Orn]S[12Ado]-OH; thioether N-14)	71
Cc1cccc(C[C@@H]2NC(=O)[C@H](CC(=O)O)NC(=O)[C@H](Cc3ccc(OCC(=O)O)cc3)NC(=O)[C@H](CCCNC(=O)c3cnccn3)NC(=O)CSC[C@@H](C(=O)N[C@@H](CCCN)C(=O)N[C@@H](CO)C(=O)NCCCCCCCCCCCC(=O)O)NC(=O)[C@H](C(C)O)NC(=O)[C@H](CCO)NC(=O)[C@H](CC3CCCCC3)NC(=O)[C@H](CCN)NC(=O)[C@@H](CC(C)C)NC(=O)[C@H](CCCN)NC(=O)[C@H](CCCNC(N)=O)NC(=O)[C@H](Cc3ccc(-c4ccccc4)cc3)NC(=O)[C@H](C(C)C)NC2=O)c1 (stereo partly drawn) [Compound 3583] ({CH2CO}-[Orn](Pyrazinecarbonyl)Y(Carboxymethyl)D[Phe(3-Me)]V[Bip][Cit][Orn][dL][Dab][Cha][hSer][Thr(3ξ)]C[Orn]S[12Ado]-OH; thioether N-14)	20.5
Cc1cccc(C[C@@H]2NC(=O)[C@H](CC(=O)O)NC(=O)[C@H](Cc3ccc(OCC(=O)O)cc3)NC(=O)[C@H](Cc3ccncc3)NC(=O)CSC[C@@H](C(=O)N[C@@H](CCCN)C(=O)N[C@@H](CO)C(=O)NCCCCCCCCCCCC(=O)O)NC(=O)[C@H](C(C)O)NC(=O)[C@H](C(C)C)NC(=O)[C@H](CC3CCCCC3)NC(=O)[C@H](CCN)NC(=O)[C@@H](CC(C)C)NC(=O)[C@H](CCCN)NC(=O)[C@H](CCCNC(=O)C(C)(C)F)NC(=O)[C@H](Cc3ccc(-c4ccccc4)cc3)NC(=O)[C@H](Cc3ccc(O)cc3)NC2=O)c1 (stereo partly drawn) [Compound 3584] ({CH2CO}-[4Pal]Y(Carboxymethyl)D[Phe(3-Me)]Y[Bip][Orn](X11)[Orn][dL][Dab][Cha]V[Thr(3ξ)]C[Orn]S[12Ado]-OH; thioether N-14)	38.2
Cc1cccc(C[C@@H]2NC(=O)[C@H](CC(=O)O)NC(=O)[C@H](Cc3ccc(OCC(=O)O)cc3)NC(=O)[C@H](Cc3ccncc3)NC(=O)CSC[C@@H](C(=O)N[C@@H](CCCN)C(=O)N[C@@H](CO)C(=O)NCCCCCCCCCCCC(=O)O)NC(=O)[C@H](C(C)O)NC(=O)[C@H](C(C)C)NC(=O)[C@H](CC3CCCCC3)NC(=O)[C@H](CCN)NC(=O)[C@@H](CC(C)C)NC(=O)[C@H](CCCN)NC(=O)[C@H](CCCNC(N)=O)NC(=O)[C@H](Cc3ccc(-c4ccccc4)cc3)NC(=O)[C@H](C(C)C)NC2=O)c1 (stereo partly drawn) [Compound 3585] ({CH2CO}-[4Pal]Y(Carboxymethyl)D[Phe(3-Me)]V[Bip][Cit][Orn][dL][Dab][Cha]V[Thr(3ξ)]C[Orn]S[12Ado]-OH; thioether N-14)	30.8
Cc1cccc(C[C@@H]2NC(=O)[C@H](CC(=O)O)NC(=O)[C@H](Cc3ccc(OCC(=O)O)cc3)NC(=O)[C@H](CN)NC(=O)CSC[C@@H](C(=O)N[C@@H](CCCN)C(=O)N[C@@H](CO)C(=O)NCCCCCCCCCCCC(=O)O)NC(=O)[C@H](C(C)O)NC(=O)[C@H](C(C)C)NC(=O)[C@H](CC3CCCCC3)NC(=O)[C@H](CCN)NC(=O)[C@@H](CC(C)C)NC(=O)[C@H](CCCN)NC(=O)[C@H](CCCNC(N)=O)NC(=O)[C@H](Cc3ccc(-c4ccccc4)cc3)NC(=O)[C@H](Cc3ccc(O)cc3)NC2=O)c1 (stereo partly drawn) [Compound 3586] ({CH2CO}-[Dap]Y(Carboxymethyl)D[Phe(3-Me)]Y[Bip][Cit][Orn][dL][Dab][Cha]V[Thr(3ξ)]C[Orn]S[12Ado]-OH; thioether N-14)	30.1
Cc1cccc(C[C@@H]2NC(=O)[C@H](CC(=O)O)NC(=O)[C@H](Cc3ccc(OCC(=O)O)cc3)NC(=O)[C@H](CN)NC(=O)CSC[C@@H](C(=O)N[C@@H](CCCN)C(=O)N[C@@H](CO)C(=O)NCCCCCCCCCCCC(=O)O)NC(=O)[C@H](C(C)O)NC(=O)[C@H](CCO)NC(=O)[C@H](CC3CCCCC3)NC(=O)[C@H](CCN)NC(=O)[C@@H](CC(C)C)NC(=O)[C@H](CCCN)NC(=O)[C@H](CCCNC(N)=O)NC(=O)[C@H](Cc3ccc(-c4ccccc4)cc3)NC(=O)[C@H](C(C)C)NC2=O)c1 (stereo partly drawn) [Compound 3587] ({CH2CO}-[Dap]Y(Carboxymethyl)D[Phe(3-Me)]V[Bip][Cit][Orn][dL][Dab][Cha][hSer][Thr(3ξ)]C[Orn]S[12Ado]-OH; thioether N-14)	33.5
Cc1cccc(C[C@@H]2NC(=O)[C@H](CC(=O)O)NC(=O)[C@H](Cc3ccc(OCC(=O)O)cc3)NC(=O)[C@H](CN)NC(=O)CSC[C@@H](C(=O)N[C@@H](CCN)C(=O)N[C@@H](CO)C(=O)NCCCCCCCCCCCC(=O)O)NC(=O)[C@H](CCCN)NC(=O)[C@H](C(C)C)NC(=O)[C@H](CC3CCCCC3)NC(=O)[C@H](CCN)NC(=O)[C@@H](CC(C)C)NC(=O)[C@H](CCCN)NC(=O)[C@H](Cc3ccc(O)cc3)NC(=O)[C@H](Cc3ccc(-c4ccccc4)cc3)NC(=O)[C@H](C(C)C)NC2=O)c1 [Compound 3588] ({CH2CO}-[Dap]Y(Carboxymethyl)D[Phe(3-Me)]V[Bip]Y[Orn][dL][Dab][Cha]V[Orn]C[Dab]S[12Ado]-OH; thioether N-14)	16.7
Cc1cccc(C[C@@H]2NC(=O)[C@H](CC(=O)O)NC(=O)[C@H](Cc3ccc(OCC(=O)O)cc3)NC(=O)[C@H](CN)NC(=O)CSC[C@@H](C(=O)N[C@@H](CCCN)C(=O)N[C@@H](CO)C(=O)NCCCCCCCCCCCC(=O)O)NC(=O)[C@H](CCCN)NC(=O)[C@H](C(C)C)NC(=O)[C@H](CC3CCCCC3)NC(=O)[C@H](CCN)NC(=O)[C@@H](CC(C)C)NC(=O)[C@H](CCCN)NC(=O)[C@H](Cc3ccc(O)cc3)NC(=O)[C@H](Cc3ccc(-c4ccccc4)cc3)NC(=O)[C@H](C(C)C)NC2=O)c1 [Compound 3589] ({CH2CO}-[Dap]Y(Carboxymethyl)D[Phe(3-Me)]V[Bip]Y[Orn][dL][Dab][Cha]V[Orn]C[Orn]S[12Ado]-OH; thioether N-14)	27.8
